Reference: article PMC7838199, “Color-tunable bioluminescence imaging portfolio for cell imaging” (Scientific Reports, 2021)

These compounds were tested against T1, NanoLuc (Oplophorus gracilirostris, UniProt Q9GV45, A31E/Q38R/Q45L/L54V/A60N/K70R/V71I/A81I/F95D/L99Q/M102K/I117V/P142E/Q151K/Y165I/N193R) (assay: bioluminescence spectrum in transfected-cell lysate). Conditions: 50 mM HEPES, pH 7.2; MDA-MB-231 lysate.
T1 construct: pcDNA3.1(+) in MDA-MB-231 cells, lysate
Format: cell-based

T1 sequence (Q9GV45 28-196 with the stated changes): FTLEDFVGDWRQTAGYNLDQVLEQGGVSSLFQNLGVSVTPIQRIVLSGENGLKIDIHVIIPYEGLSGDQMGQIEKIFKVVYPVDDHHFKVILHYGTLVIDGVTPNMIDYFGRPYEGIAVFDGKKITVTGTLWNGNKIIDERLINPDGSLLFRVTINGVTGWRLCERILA

`O=c1c(Cc2ccccc2)nc2c(-c3ccccc3)[nH]c(-c3ccccc3)cn1-2` [3d] was tested, and the “bioluminescence spectrum in transfected-cell lysate” value was 3d selectively emits significant BL with NanoLuc.

Each compound was assayed on T2, Artificial Luciferase 16 (ALuc16) (assay: bioluminescence, Lineweaver-Burk). Conditions: 50 mM HEPES, pH 7.2; 0.1 µM luciferase.
T2 construct: designed artificial luciferase; recombinant for the kinetics; cDNA in pcDNA3.1(+) for cell work
Format: biochemical, synthetic construct
From the text: bioluminescence, Lineweaver-Burk on Artificial Luciferase 16 (ALuc16)

Going from `CN(C)c1ccc(/C=C/c2cn3c(=O)c(Cc4ccc(O)cc4)nc-3c(Cc3ccccc3)[nH]2)cc1` [1b] to `CN(C)c1ccc(/C=C/C=C/c2cn3c(=O)c(Cc4ccc(O)cc4)nc-3c(Cc3ccccc3)[nH]2)cc1` [1c], the Km rises from 7.9 µM to 26.1 µM (3.3-fold).

`CN(C)c1ccc(/C=C/C=C/C=C/c2cn3c(=O)c(Cc4ccc(O)cc4)nc-3c(Cc3ccccc3)[nH]2)cc1` [1d] and `CN(C)c1ccc(/C=C/C=C/C=C/c2cn3c(=O)c(Cc4ccccc4)nc-3c(-c3ccccc3)[nH]2)cc1` [2d] are within 1.5-fold of each other in Km: 70.6 µM for the first, 86.5 µM for the second.

First: CN(C)c1ccc(/C=C/C=C/c2cn3c(=O)c(Cc4ccccc4)nc-3c(-c3ccccc3)[nH]2)cc1 [2c]
Second: O=c1c(Cc2ccccc2)nc2c(-c3ccccc3)[nH]c(-c3ccncc3)cn1-2 [3c]
The Km of the first is 2.3-fold higher: 157 µM for the first, 68.3 µM for the second.

First: O=c1c(Cc2ccccc2)nc2c(-c3ccccc3)[nH]c(-c3ccccc3)cn1-2 [3d]
Second: Oc1ccc(Cc2nc3c(Cc4ccccc4)nc(-c4ccc(O)cc4)cn3c2O)cc1 [CTZ, coelenterazine]
The Km of the first is 3.1-fold higher: 120 µM for the first, 38.5 µM for the second.
